Assay results as given in patent US20230031406A1, “COMPOUNDS AND COMPOSITIONS FOR TREATING CONDITIONS ASSOCIATED WITH NLRP ACTIVITY” (Novartis AG, priority 2018, published 2023).
Like-named read-outs stand apart in the source and are kept apart here. One block for each compound: values may come before it.

System: PMA-differentiated THP-1 cells
Test: IL-1β production in PMA-differentiated THP-1 cells stimulated with gramicidin (hTHP-1 assay containing 2% fetal bovine serum; Procedures 1 and 2)
Assay type: cell-based, human
Settings: 2% fetal bovine serum
Procedure, shortened: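 Secreted IL-1β, read by HTRF, after gramicidin challenge (5 μM, 2 h) of THP-1 cells differentiated with PMA (20 ng/ml, 16-18 h) and plated at 50,000 cells/well in 2% FBS medium. Compounds, 0.0017-100 μM final with 0.37% DMSO, were added 1 h before stimulation.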

[1] = Table B2, class symbols, read-out: hTHP-1 IC50
[2] = Homo sapiens, THP-1, Table B1, numeric bounds, read-out: Average IC50 of compounds in hTHP-1 assay: hTHP-1 IC50
[3] = Homo sapiens, THP-1, Table B3, hTHP-1 assay, class symbols, read-out: IC50
[4] = Table B1, class symbols, read-out: Average IC50 of compounds in hTHP-1 assay: hTHP-1 IC50
[5] = Homo sapiens, THP-1, Table B2, class symbols, read-out: hTHP-1 IC50

- IC50 [1]: 1000 to 5000 nM
SMILES: CCC1CCc2c1nc1c(c2NC(=O)N=S(N)(=O)c2sc(C(C)(C)O)cc2F)CCC1 (stereo not drawn) [Compound 671, N′-((3-ethyl-1,2,3,5,6,7-hexahydrodicyclopenta[b,e]pyridin-8-yl)carbamoyl)-3-fluoro-5-(2-hydroxypropan-2-yl)thiophene-2-sulfonimidamide]

- IC50 [3]: 1000 to 5000 nM
SMILES: CC(C)(O)c1ncc([S@](N)(=O)=NC(=O)Nc2c3c(nc(C(F)(F)F)c2C2CC2)CCC3)s1 [Example 577, (R)—N′-((3-cyclopropyl-2-(trifluoromethyl)-6,7-dihydro-5H-cyclopenta[b]pyridin-4-yl)carbamoyl)-2-(2-hydroxypropan-2-yl)thiazole-5-sulfonimidamide]

- IC50 [5]: 200 to 1000 nM
SMILES: CCn1ccc([S@](N)(=O)=NC(=O)Nc2c(C)c(C(F)(F)F)nc3c2CCC3)n1 [Compound 731b]

- IC50 [5]: 200 to 1000 nM
SMILES: C[C@@H]1CCc2c1nc1c(c2NC(=O)N=S(N)(=O)c2ccn(C(C)(F)F)n2)CCC1 (stereo partly drawn) [Compound 723c]

- IC50 [3]: 40 to 200 nM
SMILES: CC(O)c1csc([S@](N)(=O)=NC(=O)Nc2c3c(nc4c2CC[C@H]4C)CCC3)c1 (stereo partly drawn) [Example 582, (R)-4-(1-hydroxyethyl)-N′-(((R)-3-methyl-1,2,3,5,6,7-hexahydrodicyclopenta[b,e]pyridin-8-yl)carbamoyl)thiophene-2-sulfonimidamide]

- IC50 [3]: 1000 to 5000 nM
SMILES: CC(O)c1csc([S@@](N)(=O)=NC(=O)Nc2c3c(nc4c2CC[C@H]4C)CCC3)c1 (stereo partly drawn) [compound 583, (S)-4-(1-hydroxyethyl)-N′-(((R)-3-methyl-1,2,3,5,6,7-hexahydrodicyclopenta[b,e]pyridin-8-yl)carbamoyl)thiophene-2-sulfonimidamide]

- IC50 (Table B3, hTHP-1 assay, class symbols, read-out: IC50): 200 to 1000 nM
SMILES: Cc1c(C(F)(F)F)nc2c(c1NC(=O)N=S(N)(=O)c1cnc(C(C)(C)O)s1)CCC2C (single isomer, unassigned) [Example 706, (R, R) or (R, S)-N′-((3,7-dimethyl-2-(trifluoromethyl)-6,7-dihydro-5H-cyclopenta[b]pyridin-4-yl)carbamoyl)-2-(2-hydroxypropan-2-yl)thiazole-5-sulfonimidamide]

- IC50 (Homo sapiens, THP-1, Table B2, numeric bounds, read-out: hTHP-1 IC50): > 30000 nM
SMILES: Cc1c(CC2CC2)nc2c(c1NC(=O)N=S(N)(=O)c1cc(C(C)(C)O)cs1)CCC2 (single isomer, unassigned) [Compound 665a, (S) or (R)-N′-((2-(cyclopropylmethyl)-3-methyl-6,7-dihydro-5H-cyclopenta[b]pyridin-4-yl)carbamoyl)-4-(2-hydroxypropan-2-yl)thiophene-2-sulfonimidamide]

- IC50 [5]: 5000 to 30000 nM
SMILES: CC(C)(O)c1scc(S(N)(=O)=NC(=O)Nc2c3c(nc4c2CCC4)CCC3)c1F (single isomer, unassigned) [Compound 701a, (R) or (S)-4-Fluoro-N′-((1,2,3,5,6,7-hexahydrodicyclopenta [b,e]pyridin-8-yl)carbamoyl)-5-(2-hydroxypropan-2-yl)thiophene-3-sulfonimidamide]

- IC50 [5]: 1000 to 5000 nM
SMILES: COCCOC[C@@](C)(O)c1ncc(S(N)(=O)=NC(=O)Nc2c3c(nc4c2CCC4(C)C)CCC3)s1 (stereo partly drawn) [Compound 736, N′-((3,3-dimethyl-1,2,3,5,6,7-hexahydrodicyclopenta [b,e]pyridin-8-yl)carbamoyl)-2-((R)-2-hydroxy-1-(2-methoxyethoxy)propan-2-yl)thiazole-5-sulfonimidamide]

- IC50 [5]: 1000 to 5000 nM
SMILES: CC(C)(O)c1cc(Br)c(S(N)(=O)=NC(=O)Nc2c3c(nc4c2CCC4)CCC3)s1 (stereo not drawn) [Compound 690, 3-Bromo-N′-((1,2,3,5,6,7-hexahydrodicyclopenta[b,e]pyridin-8-yl)carbamoyl)-5-(2-hydroxypropan-2-yl)thiophene-2-sulfonimidamide]

- IC50 [1]: 5000 to 30000 nM
SMILES: CCC1CCc2c1nc1c(c2NC(=O)N=S(N)(=O)c2ccn(C(F)F)n2)CCC1 (stereo not drawn) [Compound 668, 1-(Difluoromethyl)-N′-((3-ethyl-1,2,3,5,6,7-hexahydrodicyclopenta[b,e]pyridin-8-yl)carbamoyl)-1H-pyrazole-3-sulfonimidamide]

Further lines, the compound ahead of its results:

SMILES: CNS(=O)(=NC(=O)Nc1c2c(nc3c1CCC3)CCC2)c1ccc(CN(C)C)cc1 (single isomer, unassigned) [Compound 120a, (R) or (S)-4-((dimethylamino)methyl)-N′-((1,2,3,5,6,7-hexahydro-dicyclopenta[b,e]pyridin-8-yl)carbamoyl)-N-methylbenzene-sulfonimidamide]
- IC50 [2]: > 30000 nM

SMILES: CC(C)(O)c1cnc(S(N)(=O)=NC(=O)Nc2c3c(nc4c2CCC4)CCC3)s1 (single isomer, unassigned) [Compound 167b, (R) or (S)-N′-((1,2,3,5,6,7-hexahydrodicyclo-penta[b,e]pyridin-8-yl)carbamoyl)-5-(2-hydroxypropan-2-yl)thiazole-2-sulfonimidamide]
- IC50 [4]: 200 to 1000 nM

SMILES: Cc1c(C(F)(F)F)nc2c(c1NC(=O)N=S(N)(=O)c1cnn(C(F)F)c1)CCC2 (stereo not drawn) [Compound 617, 1-(Difluoromethyl)-N′-((3-methyl-2-(trifluoromethyl)-6,7-dihydro-5H-cyclopenta[b]pyridin-4-yl)carbamoyl)-1H-pyrazole-4-sulfonimidamide]
- IC50 [5]: 5000 to 30000 nM

SMILES: CC1CCc2c1nc1c(c2NC(=O)N=S(N)(=O)c2ccn(C(C)C)n2)CCC1 (single isomer, unassigned) [Compound 129bb, (S,R) or (S,S)-1-isopropyl-N′-((3-methyl-1,2,3,5,6,7-hexa-hydrodicyclo-penta[b,e]pyridin-8-yl)carbamoyl)-1H-pyrazole-3-sulfonimidamide]
- IC50 [4]: 5000 to 30000 nM

SMILES: Cc1nc2c(c(NC(=O)N=S(N)(=O)c3cc(C(C)(C)O)cs3)c1C1CC1)CCC2 (stereo not drawn) [Compound 623, N′-((3-cyclopropyl-2-methyl-6,7-dihydro-5H-cyclopenta[b]pyridin-4-yl)carbamoyl)-4-(2-hydroxypropan-2-yl)thiophene-2-sulfonimidamide]
- IC50 [5]: 200 to 1000 nM

SMILES: CCc1c(C(F)(F)F)nc2c(c1NC(=O)N=S(N)(=O)c1cnc(C(C)(C)O)s1)CCC2 (stereo not drawn) [Compound 610, N′-((3-ethyl-2-(trifluoromethyl)-6,7-dihydro-5H-cyclopenta[b]pyridin-4-yl)carbamoyl)-2-(2-hydroxypropan-2-yl)thiazole-5-sulfonimidamide]
- IC50 [5]: 5000 to 30000 nM

SMILES: C[C@@H]1CCc2c1nc1c(c2NC(=O)N=S(N)(=O)c2sc(CN(C)C)cc2F)CCC1 (stereo partly drawn) [Compound 636c, 5-((Dimethylamino)methyl)-3-fluoro-N′-(((R)-3-methyl-1,2,3,5,6,7-hexahydrodicyclopenta[b,e]pyridin-8-yl)carbamoyl)thiophene-2-sulfonimidamide]
- IC50 [5]: 200 to 1000 nM

SMILES: CCC1CCc2c1nc1c(c2NC(=O)N=S(N)(=O)c2cnc(C(C)(C)O)s2)CCC1 (single isomer, unassigned) [Compound 662a, (S, S) or (S, R) or (R, S) or (R, R)-N′-((3-Ethyl-1,2,3,5,6,7-hexaliydrodicyclopenta [b,e]pyridin-8-yl)caibamoyl)-2-(2-hydroxypropan-2-yl)thiazole-5-sulfonimidamide]
- IC50 (Table B2, numeric bounds, read-out: hTHP-1 IC50): > 30000 nM

SMILES: CC(C)(O)c1ccc(S(N)(=O)=NC(=O)Nc2c3c(nc4c2CCC4)CCC3)cn1 (single isomer, unassigned) [Compound 156b, (R) or (S)-N′-((1,2,3,5,6,7-hexahydrodicyclo-penta[b,e]pyridin-8-yl)carbamoyl)-6-(2-hydroxypropan-2-yl)pyridine-3-sulfonimidamide]
- IC50 (Homo sapiens, THP-1, Table B1, class symbols, read-out: Average IC50 of compounds in hTHP-1 assay: hTHP-1 IC50): 1000 to 5000 nM

SMILES: CC1CCc2c1nc1c(c2NC(=O)N=S(N)(=O)c2cnc(C(C)(C)O)s2)CCC1 (single isomer, unassigned) [Compound 162ab, (S,R) or (S,S)-2-(2-hydroxypropan-2-yl)-N′-((3-methyl-1,2,3,5,6,7-hexahydrodicyclo-penta[b,e]pyridin-8-yl)carbamoyl)thiazole-5-sulfonimidamide]
- IC50 [4]: 1000 to 5000 nM

SMILES: C[C@H]1CCc2c1nc1c(c2NC(=O)N=[S@@](N)(=O)c2cnc(C(C)(C)O)s2)CCC1 [Compound 162ba, (R,S)-2-(2-hydroxypropan-2-yl)-N′-((3-methyl-1,2,3,5,6,7-hexahydrodicyclo-penta[b,e]pyridin-8-yl)carbamoyl)thiazole-5-sulfonimidamide]
- IC50 [4]: 200 to 1000 nM

SMILES: CC1CCc2c1nc1c(c2NC(=O)N=S(N)(=O)c2sc(C(C)(C)O)nc2CO)CCC1 (single isomer, unassigned) [Compound 168b, (R,R/S) or (S,R/S)-4-(hydroxymethyl)-2-(2-hydroxypropan-2-yl)-N′-((3-methyl-1,2,3,5,6,7-hexa-hydrodicyclopenta[b,e]py-ridin-8-yl)carbamoyl)thia-zole-5-sulfonimidamide]
- IC50 [4]: 200 to 1000 nM

SMILES: CC(C)(O)c1ncc(S(N)(=O)=NC(=O)Nc2cc(-c3ccccc3)nc3c2CCC3)s1 (single isomer, unassigned) [Compound 142a, (R) or (S)-2-(2-hydroxy-propan-2-yl)-N′-((2-phenyl-6,7-dihydro-5H-cyclopenta[b]pyridin-4-yl)carbamoyl)thiazole-5-sulfonimidamide]
- IC50 [2]: > 30000 nM

SMILES: CCn1ccc([S@](N)(=O)=NC(=O)Nc2c3c(nc4c2CCC42CC2)CCC3)n1 [Compound 604b]
- IC50 [5]: 200 to 1000 nM

SMILES: CC1CCc2c1nc1c(c2NC(=O)N=S(N)(=O)c2ccc(CN(C)C)cc2)CCC1 (stereo not drawn) [Compound 134, 4-((dimethylamino)methyl)-N′-((3-methyl-1,2,3,5,6,7-hexahydrodicyclopenta[b,e]pyridin-8-yl)carbamoyl)benzenesulfon-imidamide]
- IC50 [4]: 1000 to 5000 nM
